Experimental findings from US11911481B2, “Compositions and methods for treating RSV-infections” (UNITED STATES GOVERNMENT AS REPRESENTED BY THE DEPARTMENT …, priority 2018, dated 2024) are described below.

Series [1] relates to RSV rA2-L19F. Briefly: Inhibition of RSV rA2-L19F fusion by HR2D peptide in A549 cells. The class given is cell-based. To be noted: A549 cells pre-treated with 5 or 20 μM 30 min before infection, MOI 0.1, 24 hours. How it is done: Fluorescence microscopy images of A549 cells pre-treated with 5 or 20 μM HR2D peptide 30 min before RFP-RSV-Ln19-A2 infection MOI 0.1 for 24 hours. RFP intensity quantified with ImageJ.
RFP intensity was quantified with ImageJ.

The nature of series [2]: HR2D peptide release from the outer chitosan NP-layer in PBS and in 10% FBS. The class given is physicochemical. To be noted: within 10 minutes. How it is done:
FIGS. 3A-C show DNA-encapsulation and HR2D-release.
The NPs were characterized for the plasmid encapsulation and integrity following synthesis, HR2D peptide release from the outer chitosan NP-layer in PBS and in 10% FBS and their cell (FIG. 3). First, chitosan-DNA nanoparticles were prepared by a complex coacervation method. In order to determine the optimal formulation, nanoparticles of different Chitosan/pDNA ratios were prepared and characterized. The binding of pDNA to chitosan for the formulations prepared herein was analyzed by gel electrophoresis.
Chitosan/pDNA NPs were coated with a liposomal layer after co-extrusion of chitosan-pDNA NPs with pre-formed liposomes. This layer ensures the stability and integrity of the plasmid DNA and the endosomal escape and also allows for functionalization of the nanoparticle surface. The liposomal layer was then coated with another layer of chitosan complexed with fusion inhibitor HR2-D peptide.

Turning to “DACISQVNECINQSLAFICKSDELLCNT [HR2D peptide]”, the RFP expression entry in series [1] is listed as “significantly lower”. The “peptide released from the outer layer” value in series [2] is listed as 90%.
